Experimental data as given in the NIST ThermoML archive (doi:10.1021/je201002j).

Experiments:
[1] = 101.33 kPa, Liquid, Vibrating tube method
[2] = molar heat capacity at constant pressure; settings: 101.33 kPa, Liquid, Small sample (50 mg) DSC

ClCCCCBr [1-bromo-4-chlorobutane]
[1]
Settings	mass density [kg/m3]
288.15 K	1496.19
298.15 K	1485.12
308.15 K	1473.33
318.15 K	1460.96

BrCCCCCCCCCBr [1,9-dibromononane]
[2]
Settings	molar heat capacity at constant pressure [J/K/mol]
286.65 K	330.9
288.15 K	331.44
289.65 K	332
291.15 K	332.56
292.65 K	333.14
294.15 K	333.72
295.65 K	334.3
297.15 K	334.9
298.15 K	335.29
298.65 K	335.5
300.15 K	336.1
301.65 K	336.72
303.15 K	337.34
304.65 K	337.96
306.15 K	338.59
307.65 K	339.23
309.15 K	339.87
310.65 K	340.52
312.15 K	341.17
313.65 K	341.83
315.15 K	342.49
316.65 K	343.16
318.15 K	343.83
319.65 K	344.5
321.15 K	345.18
322.65 K	345.86
324.15 K	346.54
325.65 K	347.22
327.15 K	347.91
328.65 K	348.6
330.15 K	349.3
331.65 K	349.99
333.15 K	350.69
334.65 K	351.39
336.15 K	352.08
337.65 K	352.78
339.15 K	353.49
340.65 K	354.19
342.15 K	354.89
343.65 K	355.59
345.15 K	356.29
346.65 K	356.99
348.15 K	357.69
349.65 K	358.39
351.15 K	359.09
352.65 K	359.79
354.15 K	360.49
355.15 K	360.95

BrCCCCCCCCCCCCBr [1,12-dibromododecane]
[2]
Settings	molar heat capacity at constant pressure [J/K/mol]
310.65 K	432.62
312.15 K	433.39
313.65 K	434.17
315.15 K	434.98
316.65 K	435.79
318.15 K	436.62
319.65 K	437.46
321.15 K	438.31
322.65 K	439.17
324.15 K	440.04
325.65 K	440.91
327.15 K	441.8
328.65 K	442.68
330.15 K	443.57
331.65 K	444.47
333.15 K	445.36
334.65 K	446.26
336.15 K	447.15
337.65 K	448.04
339.15 K	448.93
340.65 K	449.82
342.15 K	450.69
343.65 K	451.57
345.15 K	452.43
346.65 K	453.29
348.15 K	454.13
349.65 K	454.96
351.15 K	455.78
352.65 K	456.59
354.15 K	457.38
355.15 K	457.9
